Source: US12077503B2, “Substituted cyclic amides and their use as herbicides” (FMC CORPORATION, priority 2015, dated 2024)

Columns and labels:
Assay type in all cases: in vivo
[1] = system: sedge, umbrella (small-flower umbrella sedge, Cyperus difformis); assay: Test B flooded paddy test; settings: Cyperus difformis, 250 g ai/ha, Flood; 0 to 100 scale where 0 is no effect and 100 is complete control; read-out: Sedge, Umbrella plant response rating
Method in brief: (§1)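 Rating scale 0–100 (visual, vs untreated controls) after a 13–15 d greenhouse period; application to the flood layer, 3 cm above soil and maintained; plants at 2-leaf stage when treated.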

rice (Oryra sativa) = assay: Test B flooded paddy test; settings: Oryza sativa, 250 g ai/ha, Flood; 0 to 100 scale where 0 is no effect and 100 is complete control; read-out: Rice plant response rating
Method in brief: as §1

[2] = system: ducksalad (Heteranthera limosa); assay: Test B flooded paddy test; settings: Heteranthera limosa, 250 g ai/ha, Flood; 0 to 100 scale where 0 is no effect and 100 is complete control; read-out: Ducksalad plant response rating
Method in brief: as §1

[3] = system: barnyardgrass (Echinochloa crus-galli); assay: Test B flooded paddy test; settings: Echinochloa crus-galli, 250 g ai/ha, Flood; 0 to 100 scale where 0 is no effect and 100 is complete control; read-out: Barnyardgrass plant response rating
Method in brief: as §1

Kochia (Kochia scoparia) [4] = assay: Test A preemergence; settings: Bassia scoparia, pre-emergence, 240 h, 0 to 100 scale where 0 is no effect and 100 is complete control, read-out: Kochia plant response rating; for pest or weed control at 31 g/ha: 31 g ai/ha, Preemergence; for pest or weed control at 125 g/ha: 125 g ai/ha, preemergence, visual injury rating, approximately 10 d
Method in brief: (§2)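 Visual injury scores from 0, no effect, to 100, complete control, were assigned versus untreated controls roughly 10 d after treatment in the greenhouse. Test chemicals, formulated with surfactant in a non-phytotoxic solvent, were applied to planted seeds as a preemergence soil spray or postemergence to one- to two-leaf plants 2 to 10 cm tall, in loam–sand soil.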

[5] = system: ragweed (common ragweed, Ambrosia elatior); assay: Test A preemergence; settings: Ambrosia artemisiifolia, pre-emergence, 240 h, 0 to 100 scale where 0 is no effect and 100 is complete control, read-out: Ragweed plant response rating; for pest or weed control at 31 g/ha: 31 g ai/ha, Preemergence; for pest or weed control at 125 g/ha: 125 g ai/ha, preemergence, visual injury rating, approximately 10 d
Method in brief: as §2

[6] = system: pigweed (Amaranthus retroflexus); assay: Test A preemergence; settings: Amaranthus retroflexus, pre-emergence, 240 h, 0 to 100 scale where 0 is no effect and 100 is complete control, read-out: Pigweed plant response rating; for pest or weed control at 31 g/ha: 31 g ai/ha, Preemergence; for pest or weed control at 125 g/ha: 125 g ai/ha, preemergence, visual injury rating, approximately 10 d
[7] = system: ryegrass, Italian (Italian ryegrass, Lolium multiflorum); assay: Test A preemergence; settings: Lolium multiflorum, pre-emergence, 240 h, 0 to 100 scale where 0 is no effect and 100 is complete control, read-out: Ryegrass, Italian plant response rating; for pest or weed control at 31 g/ha: 31 g ai/ha, Preemergence; for pest or weed control at 125 g/ha: 125 g ai/ha, preemergence, visual injury rating, approximately 10 d
Method in brief: as §2

[8] = system: giant foxtail (Setaria faberii); assay: Test A preemergence; settings: Setaria faberi, pre-emergence, 240 h, 0 to 100 scale where 0 is no effect and 100 is complete control, read-out: Foxtail, Giant plant response rating; for pest or weed control at 31 g/ha: 31 g ai/ha, Preemergence; for pest or weed control at 125 g/ha: 125 g ai/ha, preemergence, visual injury rating, approximately 10 d
Method in brief: as §2

[9] = system: barnyardgrass (Echinochloa crus-galli); assay: Test A preemergence; settings: Echinochloa crus-galli, pre-emergence, 240 h, 0 to 100 scale where 0 is no effect and 100 is complete control, read-out: Barnyardgrass plant response rating; for pest or weed control at 31 g/ha: 31 g ai/ha, Preemergence; for pest or weed control at 125 g/ha: 125 g ai/ha, preemergence, visual injury rating, approximately 10 d
Method in brief: as §2

Kochia (Kochia scoparia) [10] = assay: Test A postemergence; settings: Bassia scoparia, post-emergence, 240 h, Postemergence, read-out: Kochia plant response rating (0 to 100 scale); for pest or weed control at 125 g/ha: 125 g ai/ha, visual rating about 10 d after treatment; for pest or weed control at 31 g/ha: 31 g ai/ha, 0 is no effect, 100 is complete control
Method in brief: as §2

[11] = system: ragweed (common ragweed, Ambrosia elatior); assay: Test A postemergence; settings: Ambrosia artemisiifolia, post-emergence, 240 h, Postemergence, read-out: Ragweed plant response rating (0 to 100 scale); for pest or weed control at 125 g/ha: 125 g ai/ha, visual rating about 10 d after treatment; for pest or weed control at 31 g/ha: 31 g ai/ha, 0 is no effect, 100 is complete control
Method in brief: as §2

[12] = system: pigweed (Amaranthus retroflexus); assay: Test A postemergence; settings: Amaranthus retroflexus, post-emergence, 240 h, Postemergence, read-out: Pigweed plant response rating (0 to 100 scale); for pest or weed control at 125 g/ha: 125 g ai/ha, visual rating about 10 d after treatment; for pest or weed control at 31 g/ha: 31 g ai/ha, 0 is no effect, 100 is complete control
Method in brief: as §2

corn (Zea mays) = assay: Test A postemergence; settings: Zea mays, post-emergence, 240 h, Postemergence, read-out: Corn plant response rating (0 to 100 scale); for plant injury at 125 g/ha: 125 g ai/ha, visual rating about 10 d after treatment; for plant injury at 31 g/ha: 31 g ai/ha, 0 is no effect, 100 is complete control
Method in brief: as §2

[13] = system: blackgrass (Alopecurus myosuroides); assay: Test A postemergence; settings: Alopecurus myosuroides, post-emergence, 240 h, Postemergence, read-out: Blackgrass plant response rating (0 to 100 scale); for pest or weed control at 125 g/ha: 125 g ai/ha, visual rating about 10 d after treatment; for pest or weed control at 31 g/ha: 31 g ai/ha, 0 is no effect, 100 is complete control
Method in brief: as §2

[14] = system: Galium (catchweed bedstraw, Galium aparine); assay: Test A postemergence; settings: Galium, post-emergence, 240 h, Postemergence, read-out: Galium plant response rating (0 to 100 scale); for pest or weed control at 125 g/ha: 125 g ai/ha, visual rating about 10 d after treatment; for pest or weed control at 31 g/ha: 31 g ai/ha, 0 is no effect, 100 is complete control
Method in brief: as §2

[15] = system: ryegrass, Italian (Italian ryegrass, Lolium multiflorum); assay: Test A postemergence; settings: Lolium multiflorum, post-emergence, 240 h, Postemergence, read-out: Ryegrass, Italian plant response rating (0 to 100 scale); for pest or weed control at 125 g/ha: 125 g ai/ha, visual rating about 10 d after treatment; for pest or weed control at 31 g/ha: 31 g ai/ha, 0 is no effect, 100 is complete control
Method in brief: as §2

[16] = system: wheat (Triticum aestivum); assay: Test A postemergence; settings: Triticum aestivum, post-emergence, 240 h, Postemergence, read-out: Wheat plant response rating (0 to 100 scale); for plant injury at 125 g/ha: 125 g ai/ha, visual rating about 10 d after treatment; for plant injury at 31 g/ha: 31 g ai/ha, 0 is no effect, 100 is complete control
Method in brief: as §2

[17] = system: giant foxtail (Setaria faberii); assay: Test A postemergence; settings: Setaria faberi, post-emergence, 240 h, Postemergence, read-out: Foxtail, Giant plant response rating (0 to 100 scale); for pest or weed control at 125 g/ha: 125 g ai/ha, visual rating about 10 d after treatment; for pest or weed control at 31 g/ha: 31 g ai/ha, 0 is no effect, 100 is complete control
Method in brief: as §2

[18] = system: barnyardgrass (Echinochloa crus-galli); assay: Test A postemergence; settings: Echinochloa crus-galli, post-emergence, 240 h, Postemergence; for pest or weed control at 125 g/ha: 125 g ai/ha, visual rating about 10 d after treatment, read-out: Barnyardgrass plant response rating (0 to 100 scale, 0 no effect, 100 complete control); for pest or weed control at 31 g/ha: 31 g ai/ha, 0 is no effect, 100 is complete control, read-out: Barnyardgrass plant response rating (0 to 100 scale)
Method in brief: as §2

## Cc1c(F)cccc1NC(=O)[C@H]1C(=O)N(C)C[C@@H]1c1ccc2c(c1)C(F)(F)C(F)(F)O2 [Compound 1272]
[1]
  pest or weed control at 250 g/ha: 0%
Rice (Oryra sativa)
  pest or weed control at 250 g/ha: 20%
[2]
  pest or weed control at 250 g/ha: 80%
[3]
  pest or weed control at 250 g/ha: 50%
Kochia (Kochia scoparia) [4]
  pest or weed control at 31 g/ha: 0%
  pest or weed control at 125 g/ha: 20%
[5]
  pest or weed control at 31 g/ha: 0%
  pest or weed control at 125 g/ha: 0%
[6]
  pest or weed control at 31 g/ha: 0%
  pest or weed control at 125 g/ha: 0%
[7]
  pest or weed control at 31 g/ha: 20%
  pest or weed control at 125 g/ha: 60%
[8]
  pest or weed control at 31 g/ha: 90%
  pest or weed control at 125 g/ha: 90%
[9]
  pest or weed control at 31 g/ha: 90%
  pest or weed control at 125 g/ha: 90%
Kochia (Kochia scoparia) [10]
  pest or weed control at 125 g/ha: 20%
  pest or weed control at 31 g/ha: 0%
[11]
  pest or weed control at 125 g/ha: 0%
  pest or weed control at 31 g/ha: 0%
[12]
  pest or weed control at 125 g/ha: 0%
  pest or weed control at 31 g/ha: 0%
Corn (Zea mays)
  plant injury at 125 g/ha: 50%
  plant injury at 31 g/ha: 0%
[13]
  pest or weed control at 125 g/ha: 40%
  pest or weed control at 31 g/ha: 20%
[14]
  pest or weed control at 125 g/ha: 60%
  pest or weed control at 31 g/ha: 50%
[15]
  pest or weed control at 125 g/ha: 30%
  pest or weed control at 31 g/ha: 20%
[16]
  plant injury at 125 g/ha: 50%
  plant injury at 31 g/ha: 20%
[17]
  pest or weed control at 125 g/ha: 80%
  pest or weed control at 31 g/ha: 50%
[18]
  pest or weed control at 125 g/ha: 70%
  pest or weed control at 31 g/ha: 40%

## CN1C[C@H](c2ccc(C(F)(F)F)cc2)[C@@H](C(=O)Nc2ccccc2-n2cncn2)C1=O [Compound 1288]
[1]
  pest or weed control at 250 g/ha: 0%
Rice (Oryra sativa)
  pest or weed control at 250 g/ha: 0%
[2]
  pest or weed control at 250 g/ha: 0%
[3]
  pest or weed control at 250 g/ha: 0%
Kochia (Kochia scoparia) [4]
  pest or weed control at 31 g/ha: 0%
  pest or weed control at 125 g/ha: 0%
[5]
  pest or weed control at 31 g/ha: 0%
  pest or weed control at 125 g/ha: 0%
[6]
  pest or weed control at 31 g/ha: 0%
  pest or weed control at 125 g/ha: 0%
[7]
  pest or weed control at 31 g/ha: 0%
  pest or weed control at 125 g/ha: 0%
[8]
  pest or weed control at 31 g/ha: 0%
  pest or weed control at 125 g/ha: 0%
[9]
  pest or weed control at 31 g/ha: 0%
  pest or weed control at 125 g/ha: 0%
Kochia (Kochia scoparia) [10]
  pest or weed control at 125 g/ha: 0%
  pest or weed control at 31 g/ha: 0%
[11]
  pest or weed control at 125 g/ha: 0%
  pest or weed control at 31 g/ha: 0%
[12]
  pest or weed control at 125 g/ha: 0%
  pest or weed control at 31 g/ha: 0%
Corn (Zea mays)
  plant injury at 125 g/ha: 0%
  plant injury at 31 g/ha: 0%
[13]
  pest or weed control at 125 g/ha: 0%
  pest or weed control at 31 g/ha: 0%
[14]
  pest or weed control at 125 g/ha: 0%
  pest or weed control at 31 g/ha: 0%
[15]
  pest or weed control at 125 g/ha: 0%
  pest or weed control at 31 g/ha: 0%
[16]
  plant injury at 125 g/ha: 0%
  plant injury at 31 g/ha: 0%
[17]
  pest or weed control at 125 g/ha: 0%
  pest or weed control at 31 g/ha: 0%
[18]
  pest or weed control at 125 g/ha: 0%
  pest or weed control at 31 g/ha: 0%
